Measured values taken from patent US20210276967A1 (OSPEDALE SAN RAFFAELE S.R.L., priority 2018, published 2021).

Tests used:
Format in all cases: cell-based
HBV genotype A = test: Antiviral activity in HepG2 cells transfected with HBV genotype A plasmid, extracellular HBV DNA qPCR; conditions: Hepatitis B virus, read-out: HBV inhibition EC50 (Mean ± StD)
Description: (§1) HepG2 hepatoma cells transfected with HBV plasmids corresponding to the different isolates were used to perform antiviral assay against different HBV genotypes. HBV plasmids were obtained by cloning fragment containing of 1.1-mer HBV genome into the SacI/SaII sites of pcDNA3.1zeo(−) plasmid (V86520, Thermofisher Scientific). The HepG2 cell line was maintained in DMEM, supplemented with 10% of FBS, 1% glutamine and 1% penicillin/streptomycin.
(§2) HBV inhibition activity was determined on different HBV genotypes. For this purpose plasmids pcDNA3.1Zeo(−)-HBV1.1 expressing HBV genotypes A, B, C, D, E were transfected in HepG2 cell line and extracellular HBV quantification was performed by direct qPCR as described above. In detail, cells were seeded at 20,000 cells/well in polylisine coated 96-multiwell plates and 24 h later HBV plasmids were transfected with lipofection using manufacturer's procedure (Lipofectamine 3000 Reagent, Thermofisher Scientific). Five hours after transfection cells were extensively washed with PBS and compounds were added in 8-point dose-response curve in 0.5% DMSO as described above. After 4 days of incubation at 37° C. cells were subjected to cell viability assays and extracellular HBV quantification, in order to evaluate both the cytotoxic potential and the anti-viral activity of compounds, as described above. […]

HBV genotype B = test: Antiviral activity in HepG2 cells transfected with HBV genotype B plasmid, extracellular HBV DNA qPCR; conditions: Hepatitis B virus, HepG2, read-out: HBV inhibition EC50 (Mean ± StD, μM)
Description: as §1, §2

HBV genotype C = test: Antiviral activity in HepG2 cells transfected with HBV genotype C plasmid, extracellular HBV DNA qPCR; conditions: Hepatitis B virus, read-out: HBV inhibition EC50 (Mean ± StD)
Description: as §1, §2

[1] = tested on: HBV (HBeAg, surrogate of cccDNA biogenesis); test: In vitro HBV infection of HepG2-NTCP cells, extracellular HBeAg ELISA (establishment of HBV cccDNA); conditions: Hepatitis B virus, 144 h, 6 days, read-out: HBeAg* inhibition EC50 (Mean ± StD, μM) *surrogate of cccDNA biogenesis
Text: HepG2-NTCP hepatoma cell line was used to conduct the infection experiments. HepG2-NTCP was obtained by ectopic expression in HepG2 cells of the human Sodium Taurocholate Cotransporting Polypeptide receptor (hNTCP) using a lentiviral vector expressing human NTCP (Seeger et al., Molecular Therapy-Nucleic Acids, 2014). hNTCP was recently identified as HBV receptor (Yan H. et al., Elife. Nov. 13, 2012; 3). The complete viral life cycle of HBV could be obtained in the HepG2-NTCP cell line. HepG2-NTCP cells were maintained in DMEM, supplemented with 10% of FBS, 1% glutamine and 1% penicillin/streptomycin.
The ability of compounds to inhibit the establishment of HBV cccDNA in infected cells was investigated in an in vitro model of HBV infection. For this purpose HepG2-NTCP cell line, engineered to stably express the HBV receptor human sodium taurocholate cotrasporting polypeptide (hNTCP), was used and HBV particles were produced in HepAD38 following standard published procedure (Hepatitis B methods and protocols, Guo H., Cuconati, A.; 2017; Humana press). In detail HepG2-NTCP were seeded at 20.000 cells/well in collagen coated 96 multiwell plates. […] The ability of compounds to inhibit the establishment of HBV cccDNA was evaluated by quantification of extracellular HBeAg with ELISA (Elisa Kit HBE.CE. Manufacturer: DIA.PRO). […]

For `Cc1cc(N)c(S(N)(=O)=O)cc1C(=O)Nc1cc(F)c(F)c(F)c1` [Example E17, 4-amino-2-methyl-5-sulfamoyl-N-(3,4,5-trifluorophenyl)benzamide], the EC50 (HBV genotype A) was 58.2 ± 25.4 nM, the EC50 (HBV genotype B) was 0.0498 ± 0.0179 µM and the EC50 (HBV genotype C) was 28.2 ± 10.8 nM. It also gave an EC50 [1] of 0.147 µM.
